Measurements as given in patent US7211572B2 (Japan Tobacco Inc., priority 2003, dated 2007).
Where a name gives a salt, the structure may show the parent alone.

Target: T1, HIV integrase (Human immunodeficiency virus type 1 group M subtype B, UniProt P12497, F1332H)
T1 construct: HIV integrase full length gene; made in house; host or cells: Escherichia coli BL21(DE3), plasmid pET21a-INH
Assay: Determination of enzyme (HIV integrase) inhibitory activity
Format: biochemical
Conditions: recombinant HIV integrase (F185H), strand transfer ELISA, absorbance at 450 nm
Excerpt: The following explains evaluation methods of the HIV integrase inhibitory activity of the compound of the present invention.
(i) Construction of Recombinant Integrase Gene Expression System
The 185th phenylalanine of HIV integrase full length gene (J. Virol., 67, 425–437 (1993)) was substituted by histidine and inserted into the restriction enzyme NdeI and XhoI sites of plasmid pET21a(+) (Novagen), whereby an integrase expression vector pET21a-INH was constructed.
(ii) Production and Purification of Integrase Protein
Escherichia coli recombinant BL21(DE3) transformed with plasmid pET21a-INH obtained in (i) was shake cultured at 37° C. in a liquid medium containing ampicillin. When the culture reached the logarithmic growth phase, isopropyl-β-D-thiogalactopyranoside was added to promote expression of integrase gene. The culture was continued for 3 hr to promote accumulation of the integrase protein. The recombinant E. coli was collected in pellets by centrifugal separation and preserved at −80° C.
The E. coli was suspended in Lysis buffer (20 mM HEPES (pH 7.5), 5 mM DTT, 10 mM CHAPS, 10% glycerol) containing 1M sodium chloride and subjected to repeat pressurization and depressurization for rupture, and centrifugal separation at 4° C., 40,000×g, 60 min to recover a water-soluble fraction (supernatant). This was diluted 10-fold with Lysis buffer free of sodium chloride, mixed with SP-Sepharose (Pharmacia Corporation) and stirred at 4° C. for 30 min to allow adsorption of integrase protein to the resin. The resin was washed with Lysis buffer containing 100 mM sodium chloride and the integrase protein was eluted with Lysis buffer containing 1M sodium chloride.
The eluted integrase protein solution was applied to a Superdex 75 (Pharmacia Corporation) column for gel filtration. The protein was eluted with Lysis buffer containing 1M sodium chloride.
The obtained fractions of the integrase protein were collected and preserved at −80° C.
(iii) Preparation of DNA Solution
The following DNA synthesized by Greiner was dissolved in TE buffer (10 mM Tris-hydrochloric acid (pH 8.0), 1 mM EDTA) and mixed with donor DNA, target DNA, and each complementary strand (+ and − strands) to 1 μM. The mixture was heated at 95° C. for 5 min, 80° C. for 10 min, 70° C. for 10 min, 60° C. for 10 min, 50° C. for 10 min and 40° C. for 10 min and preserved at 25° C. to give a double stranded DNA, which was used for the test.
Donor DNA (− strand having biotin attached to the 5′ terminal)
(iv) Determination of Enzyme (HIV Integrase) Inhibitory Activity
The donor DNA was diluted with TE buffer to 10 nM, of which 50 μl was added to each well of streptavidin-coated microtiter plate (Roche) and allowed to adsorb at 37° C. for 60 min. The DNA was washed with phosphate buffer (Dulbecco PBS, Sanko Junyaku Co., Ltd.) containing 0.1% Tween 20 and phosphate buffer. Then, a reaction mixture (70 μl) having the following composition, a test substance (10 μl) diluted with the reaction mixture and 100 μg/ml integrase protein (10 μl) were added to each well and reacted at 37° C. for 60 min.
Composition of the reaction mixture: 30 mM MOPS (3-morpholinopropanesulfonic acid), 5 mM magnesium chloride, 3 mM DTT (dithiothreitol), 0.1 mg/ml BSA (bovine serum albumin), 5% glycerol, 10% DMSO (dimethyl sulfoxide), 0.01% Tween 20.
Then, 50 nM target DNA (10 μl) was added, reacted at 37° C. for 10 min and washed with phosphate buffer containing 0.1% Tween 20 to stop the reaction.
Then, 100 mU/ml peroxidase labeled anti-digoxigenin antibody solution (Roche, 100 μl) was added, and the mixture was reacted at 30° C. for 60 min, followed by washing with phosphate buffer containing 0.1% Tween 20.
A peroxidase color solution (Bio Rad, 100 μl) was added and allowed to react at room temperature for 4 min. The color reaction was stopped by adding 1N sulfuric acid (100 μl). The absorbance at 450 nm was measured. […]

Row | SMILES | IC50 [nM]
1 | CCN(CC)C(=O)c1cc(=O)c(O)c2n1CCN(Cc1ccc(Cl)c(Cl)c1)C2=O [Example 61, N,N-diethyl-2-(3,4-dichlorobenzyl)-9-hydroxy-1,8-dioxo-1,3,4,8-tetrahydro-2H-pyrido[1,2-a]pyrazine-6-carboxamide] | 10 to 100
2 | CC(C)N(C)C(=O)c1cc(=O)c(O)c2n1CCN(Cc1ccc(Cl)c(Cl)c1)C2=O [Example 62, N-isopropyl-N-methyl-2-(3,4-dichlorobenzyl)-9-hydroxy-1,8-dioxo-1,3,4,8-tetrahydro-2H-pyrido[1,2-a]pyrazine-6-carboxamide] | 10 to 100
3 | CCN(C)C(=O)c1cc(=O)c(O)c2n1CCN(Cc1ccc(Cl)c(Cl)c1)C2=O [Example 63, N-ethyl-N-methyl-2-(3,4-dichlorobenzyl)-9-hydroxy-1,8-dioxo-1,3,4,8-tetrahydro-2H-pyrido[1,2-a]pyrazine-6-carboxamide] | < 10
4 | O=C1c2c(O)c(=O)ccn2CCN1Cc1ccc(F)c(Cl)c1 [Example 64, 2-(3-chloro-4-fluorobenzyl)-9-hydroxy-3,4-dihydro-2H-pyrido[1,2-a]pyrazine-1,8-dione] | 10 to 100
5 | O=C1c2c(O)c(=O)ccn2CCN1Cc1ccccc1Cl [Example 65, 2-(2-chlorobenzyl)-9-hydroxy-3,4-dihydro-2H-pyrido[1,2-a]pyrazine-1,8-dione] | 100 to 1000
6 | O=C1c2c(O)c(=O)ccn2CCN1Cc1cc(Cl)cc(Cl)c1 [Example 66, 2-(3,5-dichlorobenzyl)-9-hydroxy-3,4-dihydro-2H-pyrido[1,2-a]pyrazine-1,8-dione] | 10 to 100
7 | CC(C)(C)c1cc(=O)c(O)c2n1CCN(Cc1ccc(Cl)c(Cl)c1)C2=O [Example 67, 6-tert-butyl-2-(3,4-dichlorobenzyl)-9-hydroxy-3,4-dihydro-2H-pyrido[1,2-a]pyrazine-1,8-dione] | 10 to 100
8 | CC(C)(C)C(O)c1cc(=O)c(O)c2n1CCN(Cc1ccc(Cl)c(Cl)c1)C2=O (stereo not drawn) [Example 68, 2-(3,4-dichlorobenzyl)-9-hydroxy-6-(1-hydroxy-2,2-dimethylpropyl)-3,4-dihydro-2H-pyrido[1,2-a]pyrazine-1,8-dione] | 10 to 100
9 | O=c1ccn2ccn(CCCc3ccc(Cl)cc3)c(=O)c2c1O [Example 70, 2-[3-(4-chlorophenyl)propyl]-9-hydroxy-2H-pyrido[1,2-a]pyrazine-1,8-dione] | 10 to 100
10 | O=c1ccn2ccn(CCCc3ccccc3Cl)c(=O)c2c1O [Example 71, 2-[3-(2-chlorophenyl)propyl]-9-hydroxy-2H-pyrido[1,2-a]pyrazine-1,8-dione] | 10 to 100
11 | Cc1cn(Cc2ccc(Cl)c(Cl)c2)c(=O)c2c(O)c(=O)ccn12 [Example 72, 2-(3,4-dichlorobenzyl)-9-hydroxy-4-methyl-2H-pyrido[1,2-a]pyrazine-1,8-dione hydrochloride] | < 10
12 | COc1ccc(CN2CCn3ccc(=O)c(O)c3C2=O)cc1Cl [Example 73, 2-(3-chloro-4-methoxybenzyl)-9-hydroxy-3,4-dihydro-2H-pyrido[1,2-a]pyrazine-1,8-dione] | 10 to 100
13 | N#CCc1cc(=O)c(O)c2n1CCN(Cc1ccc(Cl)c(Cl)c1)C2=O [Example 75, [2-(3,4-dichlorobenzyl)-9-hydroxy-1,8-dioxo-1,3,4,8-tetrahydro-2H-pyrido[1,2-a]pyrazin-6-yl]acetonitrile] | 10 to 100
14 | O=c1ccn2ccn(CCCc3cccc(Cl)c3)c(=O)c2c1O [Example 76, 2-[3-(3-chlorophenyl)propyl]-9-hydroxy-2H-pyrido[1,2-a]pyrazine-1,8-dione] | 10 to 100
15 | CC(C)c1cn(Cc2ccc(Cl)c(Cl)c2)c(=O)c2c(O)c(=O)ccn12 [Example 78, 2-(3,4-dichlorobenzyl)-9-hydroxy-4-isopropyl-2H-pyrido[1,2-a]pyrazine-1,8-dione] | < 10
16 | O=c1ccn2ccn(CCCc3ccc(Cl)c(Cl)c3)c(=O)c2c1O [Example 79, 2-[3-(3,4-dichlorophenyl)propyl]-9-hydroxy-2H-pyrido[1,2-a]pyrazine-1,8-dione] | 10 to 100
17 | O=c1ccn2ccn(CCCc3cc(Cl)cc(Cl)c3)c(=O)c2c1O [Example 80, 2-[3-(3,5-dichlorophenyl)propyl]-9-hydroxy-2H-pyrido[1,2-a]pyrazine-1,8-dione] | 10 to 100
18 | O=C(Cc1cc(=O)c(O)c2n1CCN(Cc1ccc(Cl)c(Cl)c1)C2=O)OCc1ccccc1 [Example 81] | < 10
19 | O=C(OCc1ccccc1)C(Cc1ccccc1)c1cc(=O)c(O)c2n1CCN(Cc1ccc(Cl)c(Cl)c1)C2=O (stereo not drawn) [Example 82, benzyl 2-[2-(3,4-dichlorobenzyl)-9-hydroxy-1,8-dioxo-1,3,4,8-tetrahydro-2H-pyrido[1,2-a]pyrazin-6-yl]-3-phenylpropionate] | 10 to 100
20 | O=C1c2c(O)c(=O)cc(CCO)n2CCN1Cc1ccc(Cl)c(Cl)c1 [Example 83, 2-(3,4-dichlorobenzyl)-9-hydroxy-6-(2-hydroxyethyl)-3,4-dihydro-2H-pyrido[1,2-a]pyrazine-1,8-dione] | 10 to 100
21 | CCCc1cn(Cc2ccc(Cl)c(Cl)c2)c(=O)c2c(O)c(=O)ccn12 [Example 84, 2-(3,4-dichlorobenzyl)-9-hydroxy-4-propyl-2H-pyrido[1,2-a]pyrazine-1,8-dione] | < 10
22 | CCc1cn(Cc2ccc(Cl)c(Cl)c2)c(=O)c2c(O)c(=O)ccn12 [Example 85, 2-(3,4-dichlorobenzyl)-4-ethyl-9-hydroxy-2H-pyrido[1,2-a]pyrazine-1,8-dione] | 10 to 100
23 | O=c1ccn2c(CO)cn(Cc3ccc(Cl)c(Cl)c3)c(=O)c2c1O [Example 86, 2-(3,4-dichlorobenzyl)-9-hydroxy-4-hydroxymethyl-2H-pyrido[1,2-a]pyrazine-1,8-dione] | < 10
24 | CC(C)Cc1cn(Cc2ccc(Cl)c(Cl)c2)c(=O)c2c(O)c(=O)ccn12 [Example 87, 2-(3,4-dichlorobenzyl)-9-hydroxy-4-isobutyl-2H-pyrido[1,2-a]pyrazine-1,8-dione] | < 10
25 | O=c1ccn2ccn(Cc3cccc(Cl)c3)c(=O)c2c1O [Example 88, 2-(3-chlorobenzyl)-9-hydroxy-2H-pyrido[1,2-a]pyrazine-1,8-dione hydrochloride] | 10 to 100
26 | COC(=O)c1cn(Cc2ccc(Cl)c(Cl)c2)c(=O)c2c(O)c(=O)ccn12 [Example 89, methyl 2-(3,4-dichlorobenzyl)-9-hydroxy-1,8-dioxo-1,8-dihydro-2H-pyrido[1,2-a]pyrazine-4-carboxylate] | 10 to 100
27 | O=c1ccn2ccn(Cc3ccc(F)c(Cl)c3)c(=O)c2c1O [Example 90, 2-(3-chloro-4-fluorobenzyl)-9-hydroxy-2H-pyrido[1,2-a]pyrazine-1,8-dione hydrochloride] | < 10
28 | O=c1ccn2ccn(CCCc3cccc(Cl)c3Cl)c(=O)c2c1O [Example 91, 2-[3-(2,3-dichlorophenyl)propyl]-9-hydroxy-2H-pyrido[1,2-a]pyrazine-1,8-dione hydrochloride] | 10 to 100
29 | CC(C)c1cn(Cc2ccc(F)c(Cl)c2)c(=O)c2c(O)c(=O)ccn12 [Example 92, 2-(3-chloro-4-fluorobenzyl)-9-hydroxy-4-isopropyl-2H-pyrido[1,2-a]pyrazine-1,8-dione hydrochloride] | < 10
30 | COC(=O)c1cn(Cc2cccc(Cl)c2)c(=O)c2c(O)c(=O)ccn12 [Example 93, methyl 2-(3-chlorobenzyl)-9-hydroxy-1,8-dioxo-1,8-dihydro-2H-pyrido[1,2-a]pyrazine-4-carboxylate] | 10 to 100
